The target of test [1] is wild type MLL1 four-member complex (MLL1-4C) (Homo sapiens, UniProt Q03164). In words: MLL1 LC-MS assay. Format: biochemical. As to conditions: 30 nM MLL1-4C, 2.5 μM SAM, 10 μM H3K4me0; SAH production by LC-MS/MS; read-out: MLL1 LCMS. The protocol:
The compounds of the present disclosure were serially and separately diluted 3-fold in DMSO to obtain a total of eight or twelve concentrations. Then the test compounds at each concentration (120 nL of each) were transferred by Mosquito into white Proxiplate plus 384-well microplate (PerkinElmer). Solutions (6 μL) of 60 nM wild type MLL1 four-member complex (MLL1-4C) and 5 μM SAM in the reaction buffer (20 mM Tris-HCl, pH8.0, 0.01% Tween 20, 1 mM DTT, 10 mM MgCl2, 0.01% BSA) were added to the wells that were then incubated with the test compound for 20 min. A 6 μL solution of 20 μM of the peptide substrate H3K4me0 (histone H3[1-21]-Biotin) in the reaction buffer was added to initiate each reaction. The final components in the reaction solution include 30 nM MLL1-4C, 2.5 μM SAM, and 10 μM H3K4me0 with varying concentration of the compounds. A positive control consisted of 30 nM MLL1-4C, 2.5 μM SAM, and 10 μM substrate in the absence of the test compound, and a negative control consisted of 2.5 μM SAM, and 10 μM substrate only. Each reaction was incubated at rt for 120 min, then stopped by addition of 3 μL per of quench solution (2.5% TFA with 320 nM d4-SAH). The reaction mixture was centrifuged (Eppendorf centrifuge 5810, Rotor A-4-62) for 2 min at 2000 rmp. The SAH production from the enzymatic assays were monitored by LC-MS/MS on an API 4000 triple quadrupole mass spec with TurboIon Spray (Applied Biosystem) coupled with Prominenece UFLC(Shimazu). The level of SAH production were then normalized based on the values coming from the positive and negative controls to give percent enzyme activities. The data were then fit to a dose response equation using the program Helios (Novartis) to get the IC50 values of the test compounds.

In test [2] the test system is H3K4me3 in MV4-11 cells. In words: MV4-11 H3K4Me3 cellular ELISA assay. The note with it: Homo sapiens, 48 hours, H3K4me3 signal normalized to total H3. The test is classed as cell-based. As for the experimental part: MV4-11H3K4Me3 Cellular ELISA Assay
MV4-11 (ATCC® CRL-9591™) was cultured with RPMI1640 medium (Thermo Fisher Scientific, cat #11875) supplemented with 10% FBS (Thermo Fisher Scientific, cat #10099141) and 50 U/ml Penicillin-Streptomycin (Thermo Fisher Scientific, cat #10378016) in humidified incubator at 37° C., 5% CO2.
200 nL compounds dissolved in DMSO were serially diluted at 1:3 ratio for 12 points starting from 10 mM and dispensed into each wells of cell culture plates (PDL-coated ViewPlate-384 Black, FTC, PerkinElmer, #6007710). 3,750 MV4-11 cells in 40 μL culture medium were seeded into each well and treated with desired concentration for 48 hours. After treatment, wash cells with cold phosphate based buffer (PBS, pH 7.4) and aspirate the remaining PBS buffer. Crude histone lysate was extracted by 40 μL 0.5M HCl for 1 hour in 4° C. following neutralization by adding 32 μL neutralization buffer (0.5M Sodium phosphate dibasic, pH˜12.5, 1.25 mM Dithiothreitol, Promega #V3151, Protease Inhibitor Cocktail, Sigma #8340) for each well. 5 μL and 20 μL of histone lysate was loaded to ELISA plate (384 Well Plates, PE HB, White, 6005620) for detection of total H3 and H3K4me3, respectively. Shake the plates gently in 4° C. for overnight. After histone binding, plates were washed with 80 μL PBS/T (PBS with 0.05% Tween-20) and blocked with 50 μL 3% BSA diluted in PBS/T per well for 1 hour. Incubate wells with primary antibody for 1 hour at room temperature using anti-H3K4me3 (CST #9727) and anti-total H3 (CST #9715) diluted 1:2000 in 3% BSA. Plates were then washed with PBS/T for 3 times and incubated with horseradish peroxidase (HRP) conjugated secondary antibody (CST #7074, 1:5000) for 1 hour at room temperature. The abundance of H3K4me3 and total H3 were measured by ECL substrates chemiluminesce (Pierce, #34080) on a plate reader (PerkinElmer EnVison 2104 Mutilable Reader). Percentage inhibition was calculated against DMSO control after normalization of H3K4me3 signal to H3 signal for individual samples. The data were then fit to a dose response curve using GraphPad Prism for IC50 calculation.
(ELISA stands for enzyme-linked immunosorbent assay.)

Molecules are shown by their SMILES.

Consider `COC[C@@H](N)CCOc1cc(Cl)cc(C)c1Cn1cnc2c(N)ncnc21` [Example 3, (S)-9-(2-(3-amino-4-methoxybutoxy)-4-chloro-6-methylbenzyl)-9H-purin-6-amine], for which the IC50 was greater than 100 nM in test [1] and greater than 3000 nM in test [2].
The matching figures for `CCc1cc(Cl)cc(OCC[C@H](N)COC)c1Cn1cnc2c(N)ncnc21` [Example 4, (S)-9-(2-(3-amino-4-methoxybutoxy)-4-chloro-6-ethylbenzyl)-9H-purin-6-amine]: greater than 100 nM and greater than 3000 nM.
`COC[C@H](N)CCCOc1cccc(Cl)c1Cc1cnc2c(N)ncnn12` [Example 6, (R)-7-(2-((4-amino-5-methoxypentyl)oxy)-6-chlorobenzyl)imidazo[2,1-f][1,2,4]triazin-4-amine]: in test [1], the IC50 is greater than 100 nM.
Consider `COC[C@H](N)CCCOc1ccccc1Cc1cnc2c(N)ncnn12` [Example 7, (R)-7-(2-((4-amino-5-methoxypentyl)oxy)benzyl)imidazo[2,1-f][1,2,4]triazin-4-amine], for which the IC50 in test [1] is greater than 100 nM.
Take `COC[C@H](N)CCCOc1cc(Cl)cc(Br)c1Cc1cnn2c(N)ncnc12` [Example 9, (R)-8-(2-((4-amino-5-methoxypentyl)oxy)-6-bromo-4-chlorobenzyl)pyrazolo[1,5-a][1,3,5] triazin-4-amine]: the IC50 is greater than 100 nM in test [1] and greater than 3000 nM in test [2].
`COC[C@H](N)CCCOc1cccc(Br)c1Cc1cnn2c(N)ncnc12` [Example 10, (R)-8-(2-((4-amino-5-methoxypentyl)oxy)-6-bromobenzyl)pyrazolo[1,5-a][1,3,5]triazin-4-amine]: in test [1], the IC50 was greater than 100 nM.
As to `COC[C@H](N)CCCOc1cccc(Cl)c1Cc1cnn2c(N)ncnc12` [Example 11, (R)-8-(2-((4-amino-5-methoxypentyl)oxy)-6-chlorobenzyl)pyrazolo[1,5-a][1,3,5]triazin-4-amine], the IC50 in test [1] is greater than 100 nM; in test [2], greater than 3000 nM.
Regarding `COC[C@H](N)CCCOc1ccccc1Cc1cnn2c(N)ncnc12` [Example 12, (R)-8-(2-((4-amino-5-methoxypentyl)oxy)benzyl)pyrazolo[1,5-a][1,3,5]triazin-4-amine], in test [1], the IC50 was greater than 100 nM.
The same measure, in the same setting: under `COC[C@H](N)CCCOc1cc(Cl)ccc1Cc1cnn2c(N)ncnc12` [Example 13, (R)-8-(2-((4-amino-5-methoxypentyl)oxy)-4-chlorobenzyl)pyrazolo[1,5-a][1,3,5]triazin-4-amine] stands greater than 100 nM; under `COC[C@H](N)CCCOc1c(Cl)cccc1Cc1cnn2c(N)ncnc12` [Example 14, (R)-8-(2-((4-amino-5-methoxypentyl)oxy)-3-chlorobenzyl)pyrazolo[1,5-a][1,3,5]triazin-4-amine], greater than 100 nM.
For the molecule `COC[C@H](N)CCCOc1ccc(Cl)c(Cl)c1Cn1cnc2c(N)ncc(Cl)c21` [Example 18, (R)-1-(6-((4-amino-5-methoxypentyl)oxy)-2,3-dichlorobenzyl)-7-chloro-1H-imidazo[4,5-c]pyridin-4-amine], the IC50 is 50 to 100 nM in test [1] and greater than 3000 nM in test [2].
Taken in the same sequence, the figures for `Nc1ncnn2c(Cc3c(OCCC[C@@H](N)C(=O)O)ccc(Cl)c3Cl)cnc12` [Example 24, (R)-2-amino-5-(2-((4-aminoimidazo[2,1-f][1,2,4]triazin-7-yl)methyl)-3,4-dichlorophenoxy) pentanoic acid] were 50 to 100 nM and greater than 3000 nM.
For the molecule `Nc1ncnc2c1ncn2Cc1c(OCC[C@H](N)C(=O)O)ccc(F)c1F` [Example 25, O-(2-((6-amino-9H-purin-9-yl)methyl)-3,4-difluorophenyl)-L-homoserine], the IC50 in test [1] was greater than 100 nM.
The same measure, in the same setting: under `CC(C)c1nc(N)c2ncn(Cc3c(Cl)cc(Cl)cc3OCCC[C@@H](N)C(=O)O)c2n1` [Example 26, (R)-2-amino-5-(2-((6-amino-2-isopropyl-9H-purin-9-yl)methyl)-3,5-dichlorophenoxy)pentanoic acid] stands greater than 100 nM; under `Nc1ncc(Cl)c2c1ncn2Cc1c(Cl)cc(Cl)cc1OCCCC(N)C(=O)O` (stereo not drawn) [Example 28, 2-amino-5-(2-((4-amino-7-chloro-1H-imidazo[4,5-c]pyridin-1-yl)methyl)-3,5-dichlorophenoxy) pentanoic acid], greater than 100 nM.
Still for that read-out and setting: under `COC(=O)[C@H](N)CCCOc1ccc(Cl)c(Cl)c1Cn1cnc2c(N)ncnc21` [Example 33, methyl (R)-2-amino-5-(2-((6-amino-9H-purin-9-yl)methyl)-3,4-dichlorophenoxy)pentanoate] stands less than 50 nM.
As for `NC(=O)[C@H](N)CCCOc1ccc(Cl)c(Cl)c1Cc1cnc2c(N)ncnn12` [Example 35, (R)-2-amino-5-(2-((4-aminoimidazo[2,1-f][1,2,4]triazin-7-yl)methyl)-3,4-dichlorophenoxy)pentanamide], the results for the IC50 in test [1] and in test [2] were greater than 100 nM and greater than 3000 nM, respectively.
With `NC(=O)[C@H](N)CCCOc1cc(Cl)cc(Cl)c1Cn1cnc2c(N)ncc(Cl)c21` [Example 38, (R)-2-amino-5-(2-((4-amino-7-chloro-1H-imidazo[4,5-c]pyridin-1-yl)methyl)-3,5-dichlorophenoxy)pentanamide], in test [1], the IC50 was greater than 100 nM.
On the same count and under the same terms, under `CNC(=O)[C@H](N)CCCOc1ccc(Cl)c(Cl)c1Cn1cnc2c(N)ncnc21` [Example 40, (R)-2-amino-5-(2-((6-amino-9H-purin-9-yl)methyl)-3,4-dichlorophenoxy)-N-methylpentanamide] stands greater than 100 nM; under `NCCCCOc1cc(Cl)cc(Cl)c1Cn1cnc2c(N)nccc21` [Example 46, 1-(2-(4-aminobutoxy)-4,6-dichlorobenzyl)-1H-imidazo[4,5-c]pyridin-4-amine], greater than 100 nM.
